Experiment [1] has as its target T1, Mannose-6-phosphate isomerase (Homo sapiens, UniProt P34949).
T1 sequence (P34949 whole entry): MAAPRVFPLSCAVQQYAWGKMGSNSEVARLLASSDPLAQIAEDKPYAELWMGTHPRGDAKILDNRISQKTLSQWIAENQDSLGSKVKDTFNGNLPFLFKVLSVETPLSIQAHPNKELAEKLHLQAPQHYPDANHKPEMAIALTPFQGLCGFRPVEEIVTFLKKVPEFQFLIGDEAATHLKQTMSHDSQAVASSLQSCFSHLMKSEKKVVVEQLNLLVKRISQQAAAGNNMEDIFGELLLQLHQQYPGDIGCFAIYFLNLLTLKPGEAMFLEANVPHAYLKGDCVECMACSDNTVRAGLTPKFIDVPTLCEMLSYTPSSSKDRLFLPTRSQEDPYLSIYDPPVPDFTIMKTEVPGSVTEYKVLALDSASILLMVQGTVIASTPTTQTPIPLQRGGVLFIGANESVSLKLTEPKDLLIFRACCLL
Description: MPI enzyme activity inhibition – biochemical, fluorescence intensity, coupled assay, primary screen (AID 1209).

Experiment [2] in a line: A cytotoxicity screen of small molecule inhibitors of the PhoP region in Salmonella typhi identified in the primary screen. [Related pubchem assays: 1850, 1864, 1985 ]. Format: functional.
In experiment [3] the target is T2, Peroxisome proliferator-activated receptor gamma/Nuclear receptor coactivator 1 (Homo sapiens, UniProt P37231). Format: functional.
Experiment [4] deals with T3, Peroxisome proliferator-activated receptor gamma/Nuclear receptor coactivator 2 (Homo sapiens, UniProt P37231). Format: functional.
The target in experiment [5] is T4, Peroxisome proliferator-activated receptor gamma/Nuclear receptor coactivator 3 (Homo sapiens, UniProt P37231). Format: functional.
The nature of experiment [6]: HEK-293T viability loss after treatment – luminescence, T-cell screen hits, cytotoxicity control for TCR NF-kB inhibitor project, dose response (AID 489026).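 Note: cells exposed to compound about 14 hours before the viability readout.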 Format: functional, cell-based.
For experiment [7], the system named is HEK293. Description: cells. The conditions noted are these: Homo sapiens.
The nature of experiment [8]: Luminescence Cell-Based Dose Retest to Confirm Inhibitors of Cancer Stem Cells. [Related pubchem assays (depositor defined):AID2717, AID2721]. Format: functional. As to conditions: Homo sapiens.
Experiment [9] has as its system HEK293. Description: cells. The conditions noted are these: Homo sapiens. This is another data set of the same source.
The nature of experiment [10]: viability loss in THP-1 monocytes – THP-1 cells, cytotoxicity control for Vif-APOBEC3G degradation inhibitor project, dose response (AID 1117359). Format: functional. As to conditions: THP-1.
Another experiment has as its target T5, Protein Tat (Human immunodeficiency virus type 1 group M subtype B (isolate HXB2)(HIV-1), UniProt P04608).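 Note: tat binding to TAR RNA read out by fluorescence polarization.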
T5 sequence (P04608 whole entry): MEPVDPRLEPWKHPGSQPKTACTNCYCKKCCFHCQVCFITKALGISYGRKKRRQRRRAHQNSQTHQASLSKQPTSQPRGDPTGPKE
Format: functional.

Experiment [11] concerns the target T3, Peroxisome proliferator-activated receptor gamma/Nuclear receptor coactivator 2. Description: TR-FRET dose response biochemical High Throughput Screening assay for agonists of the steroid receptor coactivator 2 (SRC-2) recruitment by the peroxisome proliferator-activated receptor gamma (PPAR gamma): non-selective agonists. [Related pubchem assays: 1297, 1032 ]. Format: functional. (In general: Time-resolved FRET reads energy transfer from a long-lived donor to a nearby acceptor.)

Experiment [12] addresses T2, Peroxisome proliferator-activated receptor gamma/Nuclear receptor coactivator 1. Nature of the experiment: TR-FRET dose response biochemical High Throughput Screening assay for agonists of the steroid receptor coactivator 1 (SRC-1) recruitment by the peroxisome proliferator-activated receptor gamma (PPAR gamma): non-selective agonists. [Related pubchem assays (depositor defined):AID1300, AID1808, AID504735, AID631]. Format: protein assay.

In experiment [13] the target is T4, Peroxisome proliferator-activated receptor gamma/Nuclear receptor coactivator 3. Nature of the experiment: TR-FRET dose response biochemical High Throughput Screening assay for agonists of the steroid receptor coactivator 3 (SRC-3) recruitment by the peroxisome proliferator-activated receptor gamma (PPAR gamma): non-selective agonists. [Related pubchem assays: 1301 (Confirmation screen.), 1048 (Primary screen.)]. Format: functional.

For another experiment, the target named is Estrogen receptor beta (Homo sapiens, UniProt Q92731).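 Note: recombinant ER-beta bound to coactivator SRC1 peptide in presence of estradiol agonist; inhibitors block coactivator peptide binding and lower the FRET signal.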
Experiment [14] can be described thus: luciferase reporter signal suppression in cells – H4 neuroglioma cells, luminescence, dose response (AID 1990). Format: functional, cell-based. On the technique in general: Reporter assays use an easily measured gene product as a stand-in for the process of interest.
The target in experiment [15] is T6, High affinity choline transporter 1 (Homo sapiens, UniProt Q9GZV3).
T6 sequence (Q9GZV3 whole entry): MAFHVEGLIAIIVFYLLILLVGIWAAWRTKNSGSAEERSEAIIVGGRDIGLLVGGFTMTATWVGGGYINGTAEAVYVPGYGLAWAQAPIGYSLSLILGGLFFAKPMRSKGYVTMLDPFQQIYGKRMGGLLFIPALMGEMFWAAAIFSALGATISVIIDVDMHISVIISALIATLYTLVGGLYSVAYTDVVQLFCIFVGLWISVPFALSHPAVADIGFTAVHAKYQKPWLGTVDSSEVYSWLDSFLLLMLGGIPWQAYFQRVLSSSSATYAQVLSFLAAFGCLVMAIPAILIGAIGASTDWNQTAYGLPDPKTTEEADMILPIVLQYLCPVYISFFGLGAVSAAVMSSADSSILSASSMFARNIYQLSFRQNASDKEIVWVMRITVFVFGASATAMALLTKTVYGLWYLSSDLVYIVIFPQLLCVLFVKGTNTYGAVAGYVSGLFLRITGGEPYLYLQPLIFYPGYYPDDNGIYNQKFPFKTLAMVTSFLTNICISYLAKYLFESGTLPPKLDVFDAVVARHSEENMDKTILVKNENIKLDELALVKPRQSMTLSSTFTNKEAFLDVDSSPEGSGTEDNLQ
Description: human choline transporter blockers, potency – cell-based, 5-point CRC, membrane potential dye, dose response (AID 504840). Format: functional.

The target in experiment [16] is Luciferin 4-monooxygenase (Photinus pyralis, UniProt P08659). Description: inhibition of purified Photinus pyralis luciferase – biochemical, luminescence, dose response (AID 1891).
Experiment [17] in a line: alpha-synuclein stem-loop luciferase translation blockers – H4 neuroglioma cells, luminescence, confirmation (AID 1988). Format: functional, cell-based.
Experiment [18] can be described thus: Luminescence Cell-Based Dose Response HTS to Identify Inhibitors of 5'UTR Stem-Loop Driven Prion Protein mRNA Translation in H4 Neuroglioblastoma Cells. [Related pubchem assays: 1827 (Project Summary), 1813 (Primary HTS)]. Format: functional.
A short description of experiment [19]: Luminescence Cell-Based Dose Confirmation HTS to Identify Inhibitors of Platelet Dense Granule Release. [Related pubchem assays: 1663 (Primary HTS), 1678 (Summary of Project)]. Format: functional.
Another experiment deals with Cytochrome P450 2D6 (Homo sapiens, UniProt P10635).
For another experiment, the target named is T7, Cytochrome P450 1A2 (Homo sapiens, UniProt P05177).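 Note: PubChem cytochrome P450 panel assay, CYP1A2 panel member.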
T7 sequence (P05177 whole entry): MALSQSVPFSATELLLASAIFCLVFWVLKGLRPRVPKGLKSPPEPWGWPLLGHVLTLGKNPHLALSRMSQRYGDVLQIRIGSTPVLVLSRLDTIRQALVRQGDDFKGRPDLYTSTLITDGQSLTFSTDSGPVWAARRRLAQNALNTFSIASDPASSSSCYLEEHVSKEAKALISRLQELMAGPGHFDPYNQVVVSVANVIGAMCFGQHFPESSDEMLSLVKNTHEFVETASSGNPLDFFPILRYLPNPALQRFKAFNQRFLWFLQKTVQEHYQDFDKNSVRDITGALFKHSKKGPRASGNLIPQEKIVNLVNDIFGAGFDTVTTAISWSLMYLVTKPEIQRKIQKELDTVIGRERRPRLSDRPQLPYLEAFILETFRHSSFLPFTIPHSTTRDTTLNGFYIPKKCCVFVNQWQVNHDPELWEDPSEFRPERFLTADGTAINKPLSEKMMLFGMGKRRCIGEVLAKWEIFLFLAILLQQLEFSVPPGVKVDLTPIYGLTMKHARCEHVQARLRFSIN

The target in the next experiment is Paired box protein Pax-8 (Homo sapiens, UniProt Q06710). Nature of the experiment: PAX8 transcriptional activity inhibition in RMG-I – RMG-I cells, luciferase, cherry-pick, dose response (AID 687027).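 Note: luciferase reporter driven by Pax8 target thyroperoxidase promoter measured by SteadyGlo luminescence.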 Format: functional, cell-based.
Experiment [20] in a line: OVCAR-3 cell viability loss – plate reader, dry powder samples, PAX8 inhibitor project, dose response (AID 743044). Format: functional, cell-based.
The target in experiment [21] is T8, Rac GTPase-activating protein 1 (Homo sapiens, UniProt Q9H0H5).
T8 sequence (Q9H0H5 whole entry): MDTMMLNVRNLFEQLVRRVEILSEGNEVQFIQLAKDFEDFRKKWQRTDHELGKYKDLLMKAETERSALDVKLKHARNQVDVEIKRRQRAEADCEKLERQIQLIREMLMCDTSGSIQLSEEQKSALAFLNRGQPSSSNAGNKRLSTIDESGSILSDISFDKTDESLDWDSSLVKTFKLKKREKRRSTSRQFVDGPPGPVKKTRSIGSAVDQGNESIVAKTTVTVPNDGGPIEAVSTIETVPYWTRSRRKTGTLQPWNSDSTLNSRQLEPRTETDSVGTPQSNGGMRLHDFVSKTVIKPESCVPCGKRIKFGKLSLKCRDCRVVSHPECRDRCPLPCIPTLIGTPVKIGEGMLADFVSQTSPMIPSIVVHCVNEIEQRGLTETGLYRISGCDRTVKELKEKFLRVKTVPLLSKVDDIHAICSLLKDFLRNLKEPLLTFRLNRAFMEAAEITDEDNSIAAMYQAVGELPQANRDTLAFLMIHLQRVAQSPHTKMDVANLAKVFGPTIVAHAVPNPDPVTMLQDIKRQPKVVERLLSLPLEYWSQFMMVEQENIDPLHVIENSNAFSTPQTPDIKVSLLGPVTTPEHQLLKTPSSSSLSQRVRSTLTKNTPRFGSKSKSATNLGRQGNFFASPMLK
Description: blockers of MgcRacGAP-driven Rac1 GTP hydrolysis – biochemical, ADP Hunter fluorescence, primary and confirmatory, confirmation (AID 624330). Format: functional.

SMILES strings stand for the structures. Active and inactive are the calls of the source.

T2 sequence (P37231 whole entry): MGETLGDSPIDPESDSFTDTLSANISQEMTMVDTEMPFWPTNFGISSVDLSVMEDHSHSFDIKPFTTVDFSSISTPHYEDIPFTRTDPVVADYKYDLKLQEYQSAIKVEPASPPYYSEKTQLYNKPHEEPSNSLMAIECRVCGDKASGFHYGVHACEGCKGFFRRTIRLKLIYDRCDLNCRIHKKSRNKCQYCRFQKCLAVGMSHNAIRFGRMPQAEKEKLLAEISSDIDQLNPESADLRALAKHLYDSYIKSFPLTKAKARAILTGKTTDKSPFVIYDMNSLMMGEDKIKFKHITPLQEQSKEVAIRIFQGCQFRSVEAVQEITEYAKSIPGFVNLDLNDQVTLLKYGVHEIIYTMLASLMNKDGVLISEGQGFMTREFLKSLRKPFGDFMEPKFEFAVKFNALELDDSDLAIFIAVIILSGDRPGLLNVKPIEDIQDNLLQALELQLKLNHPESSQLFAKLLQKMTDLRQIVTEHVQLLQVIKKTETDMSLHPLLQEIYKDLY
T2 sequence (Q15788 whole entry, further chain): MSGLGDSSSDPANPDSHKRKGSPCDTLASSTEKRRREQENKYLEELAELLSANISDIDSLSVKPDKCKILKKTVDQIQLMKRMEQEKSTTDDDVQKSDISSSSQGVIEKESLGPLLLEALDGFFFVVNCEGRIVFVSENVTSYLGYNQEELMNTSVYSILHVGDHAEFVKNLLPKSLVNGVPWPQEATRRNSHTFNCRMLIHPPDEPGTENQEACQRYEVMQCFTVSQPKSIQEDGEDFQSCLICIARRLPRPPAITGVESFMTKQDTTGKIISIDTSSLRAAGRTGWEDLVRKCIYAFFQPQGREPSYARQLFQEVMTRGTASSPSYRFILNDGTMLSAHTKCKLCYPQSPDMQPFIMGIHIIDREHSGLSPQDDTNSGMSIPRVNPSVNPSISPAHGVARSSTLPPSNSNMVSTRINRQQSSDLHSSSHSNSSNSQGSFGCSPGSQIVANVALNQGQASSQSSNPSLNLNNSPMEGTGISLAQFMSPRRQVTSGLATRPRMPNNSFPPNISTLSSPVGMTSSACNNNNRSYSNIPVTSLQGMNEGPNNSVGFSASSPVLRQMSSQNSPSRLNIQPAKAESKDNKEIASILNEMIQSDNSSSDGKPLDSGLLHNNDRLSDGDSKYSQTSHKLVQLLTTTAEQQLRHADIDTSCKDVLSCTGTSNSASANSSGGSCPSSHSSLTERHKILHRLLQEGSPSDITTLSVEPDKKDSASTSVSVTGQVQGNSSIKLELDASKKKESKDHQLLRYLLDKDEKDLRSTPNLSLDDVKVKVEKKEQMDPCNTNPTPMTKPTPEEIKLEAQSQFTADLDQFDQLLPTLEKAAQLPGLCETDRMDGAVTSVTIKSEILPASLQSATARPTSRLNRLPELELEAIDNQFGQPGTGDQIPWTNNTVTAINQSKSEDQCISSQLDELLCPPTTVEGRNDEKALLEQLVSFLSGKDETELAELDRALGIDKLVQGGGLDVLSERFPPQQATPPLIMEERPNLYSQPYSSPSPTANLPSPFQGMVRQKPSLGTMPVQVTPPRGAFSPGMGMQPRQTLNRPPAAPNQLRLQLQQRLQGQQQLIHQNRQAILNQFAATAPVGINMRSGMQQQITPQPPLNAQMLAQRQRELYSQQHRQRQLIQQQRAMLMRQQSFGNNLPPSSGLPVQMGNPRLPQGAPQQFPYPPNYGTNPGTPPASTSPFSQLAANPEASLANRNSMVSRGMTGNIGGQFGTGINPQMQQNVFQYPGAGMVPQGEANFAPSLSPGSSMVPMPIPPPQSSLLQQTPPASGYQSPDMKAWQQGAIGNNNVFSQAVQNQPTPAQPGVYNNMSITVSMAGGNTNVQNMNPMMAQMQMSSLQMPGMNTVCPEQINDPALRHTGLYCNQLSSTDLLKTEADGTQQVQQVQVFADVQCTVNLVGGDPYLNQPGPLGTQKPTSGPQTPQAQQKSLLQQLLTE
T4 sequence (P37231 whole entry): as the sequence (P37231 whole entry) above
T4 sequence (Q9Y6Q9 whole entry, further chain): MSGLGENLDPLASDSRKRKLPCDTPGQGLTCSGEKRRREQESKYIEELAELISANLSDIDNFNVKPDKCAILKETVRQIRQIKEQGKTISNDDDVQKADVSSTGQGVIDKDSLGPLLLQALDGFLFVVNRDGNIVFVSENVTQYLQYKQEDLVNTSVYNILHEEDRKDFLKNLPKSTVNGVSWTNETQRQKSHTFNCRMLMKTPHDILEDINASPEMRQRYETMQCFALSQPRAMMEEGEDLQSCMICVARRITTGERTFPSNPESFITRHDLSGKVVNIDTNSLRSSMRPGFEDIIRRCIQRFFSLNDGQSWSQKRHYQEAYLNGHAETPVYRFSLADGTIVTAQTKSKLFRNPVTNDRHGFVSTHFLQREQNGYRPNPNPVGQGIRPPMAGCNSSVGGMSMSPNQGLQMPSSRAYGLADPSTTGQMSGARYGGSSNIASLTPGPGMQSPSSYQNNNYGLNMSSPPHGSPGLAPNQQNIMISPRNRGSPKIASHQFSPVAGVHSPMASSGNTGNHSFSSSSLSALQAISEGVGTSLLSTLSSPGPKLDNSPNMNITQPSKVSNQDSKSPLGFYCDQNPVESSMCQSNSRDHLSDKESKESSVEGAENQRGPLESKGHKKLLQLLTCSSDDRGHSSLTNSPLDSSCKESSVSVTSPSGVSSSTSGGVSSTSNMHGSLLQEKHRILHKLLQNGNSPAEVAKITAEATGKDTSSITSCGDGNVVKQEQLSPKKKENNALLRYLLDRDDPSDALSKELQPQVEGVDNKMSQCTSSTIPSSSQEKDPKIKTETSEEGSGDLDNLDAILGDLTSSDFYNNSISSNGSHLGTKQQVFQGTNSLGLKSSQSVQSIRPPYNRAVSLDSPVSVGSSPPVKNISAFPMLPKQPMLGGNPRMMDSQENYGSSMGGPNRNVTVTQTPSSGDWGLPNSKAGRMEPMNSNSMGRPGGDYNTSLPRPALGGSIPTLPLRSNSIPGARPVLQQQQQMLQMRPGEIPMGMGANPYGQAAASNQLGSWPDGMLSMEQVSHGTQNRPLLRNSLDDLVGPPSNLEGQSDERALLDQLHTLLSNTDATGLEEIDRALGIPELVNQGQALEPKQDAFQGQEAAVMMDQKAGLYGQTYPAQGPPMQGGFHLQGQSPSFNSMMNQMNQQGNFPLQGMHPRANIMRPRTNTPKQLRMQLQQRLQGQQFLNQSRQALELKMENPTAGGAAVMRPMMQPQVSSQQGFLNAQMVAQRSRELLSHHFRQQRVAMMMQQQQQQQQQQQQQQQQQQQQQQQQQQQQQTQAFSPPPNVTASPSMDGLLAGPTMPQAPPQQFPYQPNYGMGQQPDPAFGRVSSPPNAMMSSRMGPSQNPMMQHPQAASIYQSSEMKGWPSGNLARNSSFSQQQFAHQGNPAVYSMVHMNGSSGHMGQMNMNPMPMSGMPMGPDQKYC
Estrogen receptor beta, sequence (Q92731 whole entry): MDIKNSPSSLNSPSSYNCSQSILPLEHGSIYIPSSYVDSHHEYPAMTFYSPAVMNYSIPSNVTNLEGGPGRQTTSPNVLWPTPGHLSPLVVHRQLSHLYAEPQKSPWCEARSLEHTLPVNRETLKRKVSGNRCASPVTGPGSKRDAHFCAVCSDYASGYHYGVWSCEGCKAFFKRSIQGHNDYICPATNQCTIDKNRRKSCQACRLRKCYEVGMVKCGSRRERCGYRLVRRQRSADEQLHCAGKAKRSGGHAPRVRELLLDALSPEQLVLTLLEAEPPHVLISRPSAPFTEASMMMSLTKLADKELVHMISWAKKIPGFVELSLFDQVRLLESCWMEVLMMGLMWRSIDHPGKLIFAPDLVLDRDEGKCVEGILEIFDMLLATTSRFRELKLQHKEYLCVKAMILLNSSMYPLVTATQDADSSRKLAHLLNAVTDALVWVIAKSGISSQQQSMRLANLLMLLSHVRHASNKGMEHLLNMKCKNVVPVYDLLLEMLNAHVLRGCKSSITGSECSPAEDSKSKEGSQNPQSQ
Cytochrome P450 2D6, sequence (P10635 whole entry): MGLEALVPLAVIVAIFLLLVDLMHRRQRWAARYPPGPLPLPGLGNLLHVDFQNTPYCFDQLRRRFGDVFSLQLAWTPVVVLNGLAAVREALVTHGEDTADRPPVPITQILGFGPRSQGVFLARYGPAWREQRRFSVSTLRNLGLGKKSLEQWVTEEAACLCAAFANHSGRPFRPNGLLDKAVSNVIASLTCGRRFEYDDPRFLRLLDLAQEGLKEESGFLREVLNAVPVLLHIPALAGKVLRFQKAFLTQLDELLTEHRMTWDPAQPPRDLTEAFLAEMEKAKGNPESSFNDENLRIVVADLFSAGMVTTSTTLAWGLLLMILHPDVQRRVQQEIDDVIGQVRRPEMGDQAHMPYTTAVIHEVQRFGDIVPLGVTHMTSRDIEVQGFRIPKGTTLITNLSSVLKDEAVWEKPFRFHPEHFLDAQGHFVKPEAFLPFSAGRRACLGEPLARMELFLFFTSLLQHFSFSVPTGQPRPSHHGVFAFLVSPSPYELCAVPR

As to `COc1ccccc1CSc1nc(-c2ccc([N+](=O)[O-])cc2)c[nH]1`, in experiment [1], the IC50 is listed as > 50 µM (not active).
In the case of `COc1ccc(CNCC(O)COc2ccc(C)cc2[N+](=O)[O-])cc1` (configuration not stated), the EC50 in experiment [2] is > 50 µM (active).
As to `COc1ccc(-c2noc(-c3ccc(Br)o3)n2)cc1OC`, the EC50 was 64.1 µM (not active) in experiment [3], 63 µM (not active) in experiment [4] and 68.6 µM (not active) in experiment [5].
For `COc1ccc([N+](=O)[O-])cc1Nc1c2ccccc2nc2ccccc12`, the IC50 in [6] was > 80 µM (inactive). In addition, the EC50 with HEK293 [7] and in the experiment with HEK293 [9] was > 59.6 µM (inactive) in each case. In addition, the AC50 in experiment [8] was 0.956 µM (active).
As to `Cc1cc(C)cc(NCc2cc3c(cc2[N+](=O)[O-])OCO3)c1`, the CC50 in experiment [10] is > 40 µM (active). In addition, the IC50 on Protein Tat was > 100 µM (inconclusive).
As to `CCCC(=O)Nc1nc(C)c(C(C)=O)s1`, the EC50 was 137 µM (not active) in experiment [11], > 79.4 µM (inactive) in experiment [12] and > 79.4 µM (not active) in [13].
Take `Cc1ccc(C)c(Cn2c(=O)n(-c3ccc(CC(=O)NCc4ccco4)cc3)c(=O)c3sccc32)c1`: at Estrogen receptor beta, the IC50 is recorded as > 50 µM (not active).
With `Cc1ccc(C2=NN=C(NC(=O)C(F)(F)F)SC2)cc1`, the IC50 in experiment [1] is given as > 50 µM (not active).
On to `COc1cc2c(cc1OC)-c1cc(NC3CCCCCCC3)nc(=O)n1CC2`, for which the EC50 in [14] was 28.4 µM (active); in experiment [16], > 112 µM (not active); in experiment [17], > 120 µM (not active); with HEK293 [7] it was > 59.7 µM (inactive); in experiment [18], 0.18 µM (active); in experiment [19] it was 6.92 µM (active). Moreover, the EC50 in the experiment with HEK293 [9] was > 59.7 µM (inactive). In experiment [15], the IC50 was 7.99 µM (active).
Take `Cc1ccc(-c2ccc(/C=C(\C#N)C(N)=S)o2)c([N+](=O)[O-])c1`: the EC50 in experiment [3], in experiment [4] and in experiment [5] was > 79.4 µM (not active) in each case.
As for `Cc1ccc2nc(SCC(=O)NCc3cccs3)c(C#N)cc2c1`, the figures for the EC50 in [3], in [4] and in [5] were 19 µM (not active), 11.6 µM (not active) and 20.8 µM (not active), respectively. For the same compound, the concentration at half-maximal activity (AC50) on Cytochrome P450 2D6 was 0.316 µM (inconclusive); at Cytochrome P450 1A2, 0.708 µM (inconclusive).
In the case of `COc1ccc(N2C(=O)CC(N3CC=C(c4ccccc4)CC3)C2=O)cc1` (configuration not stated), in experiment [2], the EC50 was > 50 µM (active).
`Oc1ncnc2c1c(-c1ccccc1)cn2-c1ccc(F)cc1`: the EC50 with HEK293 [7] and with HEK293 [9] was > 59.6 µM (inactive) in each case.
With `Cn1c(=O)c2c(ncn2CCCNC2=CC(C)(C)CC(=O)C2)n(C)c1=O`, at Estrogen receptor beta, the IC50 is > 50 µM (not active).
Regarding `O=c1cc(O)n(-c2ccc(F)cc2)c(=S)[nH]1`, the IC50 at Protein Tat is > 100 µM (active).
Regarding `CC(C)CNC(CC(=O)O)c1ccccc1` (configuration not stated), in experiment [2], the EC50 is > 50 µM (active).
In the case of `C[C@H](CO)N1C[C@H](C)[C@@H](CN(C)Cc2ccc(C(F)(F)F)cc2)OCCCC[C@H](C)Oc2ccc(NC(=O)Cc3ccccc3)cc2C1=O`, the values for the AC50 (at Paired box protein Pax-8; in experiment [20]) were 9.66 µM (active) and 30.6 µM (active), respectively.
Take `C/C(=C\C(=O)c1cccnc1)Nc1ccc(O)cc1`: the results for the IC50 (in experiment [21]; on Protein Tat) were 14.7 µM (active) and 26.2 µM (inconclusive), respectively.

As usually defined, the IC50 is the midpoint of a concentration-inhibition curve. The EC50 is the concentration that produces a half-maximal response. As a reminder, the AC50 is the concentration at which the activity in the assay is half-maximal. As usually defined, the CC50 is the concentration at which the toxic effect on the cells reaches its halfway point.

Source of the values: ChEMBL document CHEMBL1201862, “PubChem BioAssay data set” (2004).
